IC50 data for 11 molecules are collected here from patent US20250122211A1, “NITROGEN-CONTAINING TETRACYCLIC COMPOUND, PREPARATION METHOD THEREFOR, AND MEDICAL USE THEREOF” (Jiangsu Hengrui Pharmaceuticals Co., Ltd., priority 2021, published 2025).

Molecules are shown by their SMILES. Like-named read-outs stand apart in the source and are kept apart here.

Common to all, as to type: cell-based
For assay [1], the system named is H358 cells. Briefly: H358 proliferation assay (CellTiter-Glo). The following applies: 120 h incubation, read-out: IC50 (nM), inhibitory activity against H358 cell proliferation. Here is the method: The inhibitory activity of the compounds of the present disclosure against H358 cell proliferation was measured. Below is a brief description of the experimental method: H358 cells (ATCC, CRL-5807) were cultured in RPMI1640 medium (Hyclone, SH30809.01) containing 10% fetal bovine serum (Corning, 35-076-CV) (i.e., complete medium). On the first day of the experiment, H358 cells were seeded into a 96-well plate at a density of 1200 cells/well using complete medium, with 100 μL of cell suspension per well, and the plate was incubated overnight in a 37° C., 5% CO2 cell incubator. On the second day, the test compounds, prepared in complete medium and serially diluted, were added at 10 μL/well. The final concentrations of the compounds were 9 concentration points obtained by a 5-fold serial dilution from 10 μM. A blank control containing 0.5% DMSO was set up. The plate was incubated for 120 h in a 37° C., 5% CO2 cell incubator. On the seventh day, the 96-well cell plate was removed from the incubator, and CellTiter-Glo® Luminescent Cell Viability Assay (Promega, G7573) was added at 50 μL/well. After 10 min of room temperature incubation, luminescence signals were measured using a multifunctional microplate reader (PerkinElmer, EnVision® 2105). The IC50 values for the inhibitory activity of the compounds were calculated using Graphpad Prism software.

Assay [2] concerns ERK phosphorylation in H358 cells. Briefly: H358 cell ERK phosphorylation inhibition assay (HTRF pERK/total ERK). As to conditions: 3 h incubation, ratio of pERK/total ERK, read-out: IC50 (nM), inhibitory effects on ERK phosphorylation in H358 cells. As for the experimental part:
The inhibitory effects of the compounds of the present disclosure on ERK phosphorylation in H358 cells were measured. Below is a brief description of the experimental method: H358 cells (ATCC, CRL-5807) were cultured in RPMI1640 medium (Hyclone, SH30809.01) containing 10% fetal bovine serum (Corning, 35-076-CV) (i.e., complete medium). On the first day of the experiment, H358 cells were seeded into a 96-well plate at a density of 25,000 cells/well using complete medium, with 190 μL of cell suspension per well, and the plate was incubated overnight in a 37° C., 5% CO2 cell incubator. On the second day, the test compounds, prepared in complete medium and serially diluted, were added at 10 μL/well. The final concentrations of the compounds were 9 concentration points obtained by a 6-fold serial dilution from 10 μM. A blank control containing 0.5% DMSO was set up. The plate was incubated for 3 h in a 37° C., 5% CO2 cell incubator. After 3 h, the 96-well cell culture plate was removed from the incubator, and the culture medium was pipetted off. PBS (Shanghai BasalMedia Technologies Co., Ltd., B320) was added at 200 μL/well for a single wash. PBS was pipetted off, and lysis buffer (Cisbio, 64KL1FDF) containing a blocking agent (Cisbio, 64KB1AAC) was added at 50 μL/well. The plate was incubated on a shaker for 30 min at room temperature to lyse the cells. After lysis, the lysates were well mixed by pipetting, and 16 μL of lysate was transferred from each well to two HTRF 96-well assay plates (Cisbio, 66PL96100). Subsequently, 4 μL of a premixed phospho-ERK1/2 antibody solution (Cisbio, 64AERPEG) or 4 μL of a premixed total-ERK1/2 antibody solution (Cisbio, 64NRKPEG) was added to each of the plates. The plates were sealed with a plate sealer film, centrifuged for 1 min in a microplate centrifuge, and incubated overnight at room temperature in the dark. On the third day, fluorescence values at an excitation wavelength of 337 nm and emission wavelengths of 665 nm and 620 nm were measured using a PHERAstar multifunctional microplate reader (BMG Labtech, PHERAstar FS). The IC50 values for the inhibitory activity of the compounds were calculated using Graphpad Prism software, based on the compound concentration and the ratio of pERK/total ERK.
A general note: Time-resolved FRET reads energy transfer from a long-lived donor to a nearby acceptor.

Assay [3] concerns MIA PaCa-2 cells. The experiment in a line: MIA PaCa-2 cell proliferation assay (CellTiter-Glo). As to conditions: 72 h incubation, read-out: IC50 (nM), inhibitory activity against MIA PaCa-2 cell proliferation. As for the experimental part:
The inhibitory activity of the compounds of the present disclosure against MIA PaCa-2 cell proliferation was measured. Below is a brief description of the experimental method:
MIA PaCa-2 cells (ATCC, CRL-1420) were cultured in DMEM/HIGH GLUCOSE medium (GE, SH30243.01) containing 10% fetal bovine serum (Corning, 35-076-CV) and 2.5% horse serum (Beyotime Biological Tech., C0262) (i.e., complete medium). On the first day of the experiment, MIA PaCa-2 cells were seeded into a 96-well plate at a density of 500 cells/well using complete medium, with 90 µL of cell suspension per well, and the plate was incubated overnight in a 37° C., 5% CO2 cell incubator. On the second day, the test compounds, prepared in complete medium and serially diluted, were added at 10 μL/well. The final concentrations of the compounds were 9 concentration points obtained by a 5-fold serial dilution from 10 μM. A blank control containing 0.5% DMSO was set up. The plate was incubated for 72 h in a 37° C., 5% CO2 cell incubator. On the fifth day, the 96-well cell plate was removed from the incubator, and CellTiter-Glo® Luminescent Cell Viability Assay (Promega, G7573) was added at 50 μL/well. After 10 min of room temperature incubation, luminescence signals were measured using a multifunctional microplate reader (PerkinElmer, EnVision2015). The IC50 values for the inhibitory activity of the compounds were calculated using Graphpad Prism software.
For orientation: ATP-based viability assays read luminescence as a measure of living cells.

For the molecule `C=CC(=O)N1CCN2C(=O)c3cc(F)c(-c4ccc(F)c5sc(N)c(C#N)c45)c4cnn(c34)CC[C@H]2C1` (atropisomer, axis not shown) [Example 1-P1, (R)-4-((S)-10-Acryloyl-2-fluoro-14-oxo-8,8a,9,10,11,12-hexahydro-7H,14H-pyrazino[1′,2′:5,6][1,5]diazocino[3,2,1-hi]indazol-3-yl)-2-amino-7-fluorobenzo[b]thiophene-3-carbonitrile], the IC50 in assay [1] came out at 12 nM; in assay [2], 1.33 nM; in assay [3], 2.79 nM.

As to `C=CC(=O)N1CCN2C(=O)c3cc(F)c(-c4ccc(F)c5sc(N)c(C#N)c45)c4cnn(c34)CC[C@H]2C1` (atropisomer, axis not shown) [Example 1-P2, (S)-4-((S)-10-Acryloyl-2-fluoro-14-oxo-8,8a,9,10,11,12-hexahydro-7H,14H-pyrazino[1′,2′:5,6][1,5]diazocino[3,2,1-hi]indazol-3-yl)-2-amino-7-fluorobenzo[b]thiophene-3-carbonitrile], the IC50 in assay [1] was determined as 0.93 nM; in assay [2], 0.07 nM; in assay [3], 0.4 nM.

In the case of `C=C(F)C(=O)N1CCN2C(=O)c3cc(F)c(-c4ccc(F)c5sc(N)c(C#N)c45)c4cnn(c34)CC[C@H]2C1` (atropisomer, axis not shown) [Example 6-P1, (R)-2-Amino-7-fluoro-4-((S)-2-fluoro-10-(2-fluoroacryloyl)-14-oxo-8,8a,9,10,11,12-hexahydro-7H,14H-pyrazino[1′,2′:5,6][1,5]diazocino[3,2,1-hi]indazol-3-yl)benzo[b]thiophene-3-carbonitrile], the IC50 in assay [1] came out at 9.75 nM; in assay [2] it was 1.45 nM; in assay [3], 13.9 nM.

Turning to `C=C(F)C(=O)N1CCN2C(=O)c3cc(F)c(-c4ccc(F)c5sc(N)c(C#N)c45)c4cnn(c34)CC[C@H]2C1` (atropisomer, axis not shown) [Example 6-P2, (S)-2-Amino-7-fluoro-4-((S)-2-fluoro-10-(2-fluoroacryloyl)-14-oxo-8,8a,9,10,11,12-hexahydro-7H,14H-pyrazino[1′,2′:5,6][1,5]diazocino[3,2,1-hi]indazol-3-yl)benzo[b]thiophene-3-carbonitrile], the IC50 came out at 5.73 nM in assay [1] (Homo sapiens, NCI-H358, 120 h); 0.35 nM in assay [2]; 5.39 nM in assay [3].

Take `C=CC(=O)N1CCN2C(=O)c3cc(F)c(-c4ccc(F)c5sc(N)c(C#N)c45)c4c(Cl)nn(c34)CC[C@H]2C1` (atropisomer, axis not shown) [Example 7-P2, (S)-4-((S)-10-Acryloyl-4-chloro-2-fluoro-14-oxo-8,8a,9,10,11,12-hexahydro-7H,14H-pyrazino[1′,2′:5,6][1,5]diazocino[3,2,1-hi]indazol-3-yl)-2-amino-7-fluorobenzo[b]thiophene-3-carbonitrile]: the IC50 in assay [1] (Homo sapiens, NCI-H358, 120 h) was 0.74 nM; in assay [2] (Homo sapiens, NCI-H358, 3 h) it was 0.13 nM; in assay [3] (Homo sapiens, MIA PaCa-2, 72 h), 0.28 nM.

Consider `C=CC(=O)N1CCN2C(=O)c3cc(F)c(-c4ccc(F)c5sc(N)c(C#N)c45)c4c(F)nn(c34)CC[C@H]2C1` (atropisomer, axis not shown) [Example 8-P2, (S)-4-((S)-10-Acryloyl-2,4-difluoro-14-oxo-8,8a,9,10,11,12-hexahydro-7H,14H-pyrazino[1′,2′:5][1,5]diazocino[3,2,1-hi]indazol-3-yl)-2-amino-7-fluorobenzo[b]thiophene-3-carbonitrile], for which the IC50 in assay [1] (Homo sapiens, NCI-H358, 120 h) came out at 0.84 nM; in assay [2] (Homo sapiens, NCI-H358, 3 h) it was 0.16 nM; in assay [3] (Homo sapiens, MIA PaCa-2, 72 h), 0.19 nM.

On to `C=CC(=O)N1CCN2C(=O)c3cc(F)c(-c4ccc(F)c5sc(N)c(C#N)c45)c4c(C)nn(c34)CC[C@H]2C1` (atropisomer, axis not shown) [Example 9-P1, (R)-4-((S)-10-Acryloyl-2-fluoro-4-methyl-14-oxo-8,8a,9,10,11,12-hexahydro-7H,14H-pyrazino[1′,2′:5,6][1,5]diazocino[3,2,1-hi]indazol-3-yl)-2-amino-7-fluorobenzo[b]thiophene-3-carbonitrile], for which the IC50 in assay [2] is 32.5 nM.

Regarding `C=CC(=O)N1CCN2C(=O)c3cc(F)c(-c4ccc(F)c5sc(N)c(C#N)c45)c4cnn(c34)CC[C@@H]2C1` (atropisomer, axis not shown) [Example 12-P2, (S)-4-((R)-10-Acryloyl-2-fluoro-14-oxo-8,8a,9,10,11,12-hexahydro-7H,14H-pyrazino[1′,2′:5,6][1,5]diazocino[3,2,1-hi]indazol-3-yl)-2-amino-7-fluorobenzo[b]thiophene-3-carbonitrile], the IC50 in assay [2] (Homo sapiens, NCI-H358, 3 h) was 11.3 nM; in assay [3] (Homo sapiens, MIA PaCa-2, 72 h), 35.3 nM.

As to `C=CC(=O)N1CCN2C(=O)c3cc(F)c(-c4ccc(F)c5sc(N)nc45)c4ccn(c34)CC[C@H]2C1` [Example 3, (8aS)-10-Acryloyl-3-(-2-amino-7-fluorobenzo[d]thiazol-4-yl)-2-fluoro-8,8a,9,10,11,12-hexahydro-7H,14H-pyrazino[1′,2′:5,6][1,5]diazocino[3,2,1-hi]indol-14-one], in assay [2] (Homo sapiens, NCI-H358, 3 h), the IC50 amounted to 23.7 nM.

Regarding `C=C(F)C(=O)N1CCN2C(=O)c3cc(F)c(-c4ccc(F)c5sc(N)c(C#N)c45)c4ccn(c34)CC[C@H]2C1` [Example 5, 2-Amino-7-fluoro-4-((S)-2-fluoro-10-(2-fluoroacryloyl)-14-oxo-8,8a,9,10,11,12-hexahydro-7H,14H-pyrazino[1′,2′:5,6][1,5]diazocino[3,2,1-hi]indol-3-yl)benzo[b]thiophene-3-carbonitrile], the IC50 in assay [2] (Homo sapiens, NCI-H358, 3 h) was 36.2 nM.

Regarding `C=CC(=O)N1CCN2C(=O)c3cc(F)c(-c4ccc(F)c5sc(N)c(C#N)c45)c4cnn(c34)C[C@H]2C1` [Example 14, 4-((R)-10-Acryloyl-4-fluoro-6-oxo-8,9,10,11,11a,12-hexahydro-6H-pyrazino[2′,1′:3,4][1,4]diazepino[6,7,1-hi]indazol-3-yl)-2-amino-7-fluorobenzo[b]thiophene-3-carbonitrile], the IC50 in assay [2] (Homo sapiens, NCI-H358, 3 h) came to 1.35 nM; in assay [3] (Homo sapiens, MIA PaCa-2, 72 h) it was 39.6 nM.
